Results published in PubChem BioAssay AID489024 (Sanford-Burnham Center for Chemical Genomics, 2010).
Activity calls are given as the source filed them.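 The calls were made as follows: active = compounds whose mean EC50, the dose giving half the maximal reporter activation, is at or below a set limit; inactive = the rest.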

Target: CHO-CHOP luciferase reporter, UPR activation, luminescence
Experiment: CHOP reporter induction, apoptotic UPR branch – CHO-CHOP cells, luciferase luminescence, confirmation (AID 489024);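 also: compounds added alone to reporter cells with no tunicamycin stress co-treatment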

Compound	EC50
COc1ccccc1N1CCN(/N=C/c2ccc(O)c(O)c2)CC1	2.36 µM
Oc1ccc(/C=N/N2CCN(C3c4ccccc4-c4ccccc43)CC2)cc1O	inactive
Oc1ccc(-c2csc(Nc3cccc4ccccc34)n2)cc1O	3.19 µM
Cc1nc([N+](=O)[O-])c(Br)n1CC(=O)c1ccc2ccccc2c1	> 80 µM (inactive)
CCCN1C/C(=C/c2ccc3c(c2)OCO3)C(=O)/C(=C/c2ccc3c(c2)OCO3)C1	7.78 µM
CCOC(=O)c1sc(N(Cc2ccccc2)C(=O)CCl)nc1C	7.96 µM
COCCN=c1scc(-c2cccs2)n1/N=C/c1ccc(O)c(O)c1O	inactive
Cc1c(C(=O)c2no[n+]([O-])c2C(=O)c2cnn(C)c2C)cnn1C	> 80 µM (inactive)
Cn1nc([N+](=O)[O-])c(C(C#N)c2ccccn2)c(Cl)c1=O (configuration not stated)	> 80 µM (inactive)
Cc1cc(C(=O)CCl)c(C)n1CCc1ccc(Cl)cc1	7.15 µM
COc1ccc(/C=C/C(=O)c2ccc([N+](=O)[O-])o2)cc1	6.65 µM
O=C(Oc1oc(-c2ccco2)nc1C=Nc1ccc(Cl)cc1)c1ccco1	8.89 µM
CC(C)N1C(=O)/C(=C/C=C/c2ccco2)C(=O)N(Cc2ccco2)C1=O	8.46 µM
Cc1ccc(C)c(NC(=S)c2ccccn2)c1	inactive
c1ccc(-c2nc(N3CCCCCC3)c3ccccc3n2)nc1	inactive
O=C(/C=C/c1ccc([N+](=O)[O-])cc1)/C=C/c1ccco1	6.61 µM
COc1cccc2sc(N3CCN(c4nc5ccccc5s4)CC3)nc12	13.8 µM
COc1cc(OC)cc(C(=O)NC(=S)Nc2cc3oc4ccccc4c3cc2OC)c1	inactive
CCCCCCCC(=O)Nc1ccc(C(=O)N/N=C/c2cccc([N+](=O)[O-])c2)cc1	inactive
CCSC1(SCC)N=C(N)C2(C#N)C(c3ccc(OC)c(OC)c3OC)C12C#N (configuration not stated)	14.7 µM
Cc1cc(C)nc(SCc2ccc(C(=O)N/N=C/c3cccc(O)c3O)cc2)n1	10.1 µM
Oc1ccc(-c2csc(-c3ccccc3)n2)cc1O	5.57 µM

Compound	EC50
COc1ccc(C(=O)N/N=C(\C)c2ccccn2)cc1OC	2.82 µM
O=C1CC(c2cccc(Cl)c2)CC(O)=C1C=Nc1ccccc1 (configuration not stated)	16.2 µM
Cc1coc2c1C(=O)C(=O)c1c-2ccc2c(C)cccc12	> 80 µM (inactive)
COc1cccc(N=Nc2ccc(O)c3ncccc23)c1	12.7 µM
CCc1cc(C(=O)c2ccc(C)cc2)c(NC(=O)CCl)s1	13.5 µM
Cc1ccc(Sc2c([N+](=O)[O-])c(=O)n(C)c3ccccc23)cc1	> 80 µM (inactive)
COc1ccc(CCNC(=O)c2coc(=O)c(Br)c2)cc1	7.26 µM
COc1ccc(-c2ccc(-c3nc4c(c(=O)[nH]c(=O)n4Cc4ccccc4)n3C)o2)c([N+](=O)[O-])c1	> 80 µM (inactive)
Cc1nc2ccccc2n1-c1nc(-c2ccco2)cc(C(F)(F)F)n1	6.76 µM
COc1ccc(N2C(=O)/C(=C/c3cccs3)C(=O)NC2=S)cc1	9.09 µM
O=C(COC(=O)c1ccccc1C(=O)c1ccc(Cl)c([N+](=O)[O-])c1)NC1CCCCCC1	> 80 µM (inactive)
CCc1cc2c(=O)[nH]c(-c3ccccn3)nc2s1	2.61 µM
CCCOc1ccc(N2C(=O)CC(N(O)c3ccccc3)C2=O)cc1 (configuration not stated)	7.23 µM
Cn1c(/C=C/c2ccc([N+](=O)[O-])o2)nc2ccccc2c1=O	6.93 µM
CCc1ccc2nc(N(CCCN(C)C)C(=O)c3ccc(S(=O)(=O)N4CCc5ccccc5C4)cc3)sc2c1	7.12 µM
Cc1cccc(-n2c(/C=C/c3ccc([N+](=O)[O-])o3)nc3ccccc3c2=O)c1	11.7 µM
COc1ccccc1N=Cc1c(O)c2ccccc2oc1=O	12.5 µM
CC1=CC(C)(C)Nc2ccc(OC(=O)CN3C(=O)CCC3=O)cc21	9.58 µM
Cc1ccc(S/C=C\C(=O)c2ccccc2)cc1	> 80 µM (inactive)
Nc1c(C(=O)Nc2ccc(S(=O)(=O)N3CCCC3)cc2)sc2nc3ccc(OC(F)(F)F)cc3cc12	> 80 µM (inactive)
Clc1ccc(-c2ccc(/C=N/Nc3nncc(-c4ccccc4)n3)o2)cc1	15.6 µM
Cc1ccc(S(=O)(=O)Nc2cccc3cccnc23)cc1	4.41 µM

Compound	EC50
COc1ccccc1N1C(=O)C=C(Sc2nc(C)cc(C)n2)C1=O	> 80 µM (inactive)
C=CCn1c(O)c(N=NC(=S)Nc2ccccc2F)c2cc(S(=O)(=O)N3CCOCC3)ccc21	7.34 µM
Cc1cc(C(=O)CCl)c(C)n1CCc1ccc(F)cc1	7.77 µM
O=C(CCl)Nc1ccc(-c2ccccc2)cc1	> 80 µM (inactive)
C/C(=N\NC(=O)c1cc2ccccc2cc1O)c1ccccn1	3.71 µM
O=C(NC1CCCC1)C(c1ccc(F)cc1)N(Cc1ccc(Cl)cc1)C(=O)CCl (configuration not stated)	7.8 µM
Cc1cccc(-n2ncc(Cl)c(Cl)c2=O)c1	7.81 µM
Cc1ccc(Nc2nc(-c3ccc(O)c(O)c3)cs2)nc1	1.56 µM
COc1ccc(NC(=O)c2nc(S(=O)(=O)Cc3cccc(C)c3)ncc2Cl)c(OC)c1	11.5 µM
CN(/N=C\c1ccc(O)c(O)c1)c1nc(-c2ccccc2)cc(-c2ccccc2)n1	1.32 µM
OCCNc1nc(Nc2ccc(Cl)c(Cl)c2)nc2ccccc12	11.7 µM
CC(C)(C)C(=O)N1CCN(c2ccc(NC(=O)c3ccc([N+](=O)[O-])o3)cc2)CC1	0.75 µM
O=C(CCl)Nc1cccc(S(=O)(=O)NC2=NCCCCC2)c1	17.8 µM
CC(C)N=c1scc(-c2ccco2)n1/N=C/c1ccc(O)c(O)c1	1.1 µM
COc1ccc(CC2=CC(=O)c3ccccc3C2=O)cc1	12.4 µM
O=[N+]([O-])c1ccc2nc(Cl)nc(-c3ccccc3)c2c1	12.5 µM
Cc1ccc(CN2CCN(/N=C/c3ccc(O)c(O)c3)CC2)cc1	3.64 µM
COc1ccccc1-c1nnc(Nc2nc3c(OC)cccc3s2)o1	2.48 µM
Cc1c(C#N)c(NC(=O)CCl)n(Cc2ccccc2)c1C	14.4 µM
Cc1cccc(Nc2nc3c(S(=O)(=O)c4ccccc4)nnn3c3ccccc23)c1C	inactive
C/C(=N\NC(=O)c1cccc2ccccc12)c1ccccn1	3.22 µM
COC(=O)c1c(NC(=O)c2ccc([N+](=O)[O-])o2)sc2c1CCN(C(C)C)C2	1.76 µM

Compound	EC50
CCC(=O)Nc1ccc(C(=O)Cn2ncc(Cl)c(Cl)c2=O)cc1	13.7 µM
CCSC1(SCC)N=C(N)C2(C#N)C(c3ccc(F)cc3)C12C#N (configuration not stated)	11 µM
CCc1nnc(NC(=O)CSc2nc(-c3ccccc3)cc(-c3ccc(OC)cc3)c2C#N)s1	13 µM
O=C(Nc1ccc(Cl)cc1)/C(=C/c1cccc(O)c1)c1nc2ccccc2s1	> 80 µM (inactive)
CC(C)c1ccc(/C=C(\c2nc3ccccc3[nH]2)S(=O)(=O)c2ccccc2)cc1	9.49 µM
COc1cc([N+](=O)[O-])cc(/C=N/NC(=O)c2ccc(NC(=O)c3ccc(C)cc3)cc2)c1O	12.3 µM
CN1/C(=C\C(=O)COC(=O)c2ccc(O)c(O)c2)C(C)(C)c2ccccc21	6.67 µM
O=C(NCc1cccnc1)/C(=C\c1ccc(-c2ccc(Br)cc2)o1)S(=O)(=O)c1ccccc1	6.67 µM
Cc1ccc(C)c(C(=O)Cn2ncc(Cl)c(Cl)c2=O)c1	10.8 µM
CC[C@@H](C)[C@H](NC(=O)OC(C)(C)C)c1nnc(S(=O)(=O)Cc2cc(C)ccc2C)o1	15.5 µM
O=[N+]([O-])c1ccc(C=Nc2ccc(Cl)c([N+](=O)[O-])c2)s1	> 80 µM (inactive)
C/C(=C\c1ccc(N(C)C)cc1)[N+](=O)[O-]	9.76 µM
COC(=O)c1cc(=O)n(Cc2ccc3c(c2)OCO3)c(=Nc2ccc(F)c(Cl)c2)s1	> 80 µM (inactive)
Oc1ccc(/C=N/Nc2cc(N3CCCC3)nc(N3CCCC3)n2)cc1O	13.2 µM
COc1cccc(N=Nc2ccc3cccnc3c2O)c1	10.2 µM
Cc1ccc2oc(Nc3nc(-c4ccccc4)cc(=O)[nH]3)nc2c1	7.41 µM
COc1cc(C(=O)Oc2c(CN3CCOCC3)cc(Cl)c3cccnc23)cc(OC)c1OC	inactive
COc1ccccc1NC(=O)c1cnc(SCC(=O)NCC2CCCO2)n(C)c1=O (configuration not stated)	14.4 µM
CCCN(CCC)C(=O)c1cc([N+](=O)[O-])cc2c1-c1ccc([N+](=O)[O-])cc1C2=C(C#N)C#N	13.3 µM
O=C(Nc1ccc2oc(-c3ccc4ccccc4c3)nc2c1)c1ccc2c(c1)OCCO2	19.8 µM
COc1ccc(C(=O)Cn2c(C(=O)/C=C/c3ccccc3)nc3ccccc32)cc1	10.1 µM
Cc1cccnc1Nc1nc(-c2ccc(O)c(O)c2)cs1	3.48 µM

Compound	EC50
C/C(=N\NC(=O)COc1ccccc1-c1ccccc1)c1ccccn1	6.49 µM
COc1ccc(-c2cc(C(F)(F)F)nc(S(C)(=O)=O)n2)cc1OC	9.31 µM
COc1ccccc1/C=N\Nc1cc(C)nc(-n2nc(C)cc2C)n1	13.9 µM
Cc1ccc(S(=O)(=O)Nc2cccc3cccnc23)c([N+](=O)[O-])c1	7.17 µM
Cc1ccc(NC(=O)c2ccc(N/N=C/c3cccc(O)c3)c([N+](=O)[O-])c2)cc1	8.03 µM
Cc1ccccc1S(=O)(=O)NC1OC(=O)C(Cl)=C1Cl (configuration not stated)	> 80 µM (inactive)
CCCN1Cc2cccc(C(=O)Nc3ccc(-c4nc5ccccc5[nH]4)cc3)c2C1=O	> 80 µM (inactive)
Cc1noc2ncnc(Sc3ccc(Cl)cc3)c12	7.1 µM
O=c1c2ccccc2nc(/C=C/c2ccc([N+](=O)[O-])o2)n1-c1ccc(O)cc1	13.3 µM
CCOC(=O)Cc1csc(/N=C/c2c(O)n(-c3ccc(C)c(C)c3)c(=O)c3ccccc23)n1	10.7 µM
C=CCN=c1scc(-c2ccco2)n1/N=C/c1ccc(O)c(O)c1O	inactive
Oc1c(C(c2ccccn2)N2CCC(Cc3ccccc3)CC2)cc(Cl)c2cccnc12 (configuration not stated)	inactive
CC1CCN(Cc2c(C(=O)N/N=C/c3ccc(C(C)(C)C)cc3)nnn2-c2nonc2N)CC1	8.4 µM
CCOc1ccc(NC(=S)NC(=O)/C=C/c2ccc(OC)c(OC)c2)c([N+](=O)[O-])c1	> 80 µM (inactive)
COc1ccc(C(=O)C(CN2CCOCC2)c2ccccc2)cc1 (configuration not stated)	inactive
O=C(N/N=C\c1cc2c(cc1Cl)OCO2)c1ccc(Br)s1	> 80 µM (inactive)
O=c1[nH]c(-c2ccc(-c3cccc(Cl)c3)o2)nc2ccccc12	12.9 µM
FC(F)(F)c1nnc2c(Sc3ccccc3)nc3ccc(Cl)cc3n12	3.97 µM
COC(=O)C1=C(C)N(c2ccc(C)c(C)c2)/C(=C/c2cccs2)C1=O	> 80 µM (inactive)
